Data taken from patent US9138434B2, “Octahydrothienoquinoline derivative, pharmaceutical composition comprising derivative, and use of these” (KISSEI PHARMACEUTICAL CO., LTD., priority 2011, dated 2015).
Like-named read-outs stand apart in the source and are kept apart here.

Experiments:
[1] = target: T1, human serotonin 5-HT2B receptor (Homo sapiens, UniProt P41595); assay: Stimulating activities on human serotonin 5-HT2B receptor, intracellular calcium in forced expression HEK293 cells; type: cell-based
T1 construct: expressed in transfected cells; host or cells: HEK293, transient transfection (Lipofectamine 2000)
Method: Identification Test of Stimulating Activities on Human Serotonin 5-HT2B Receptor
The PCR was performed using forward primer depicted as sequence ID No. 4, reverse primer depicted as sequence ID No. 5 and KOD-Plus-Ver.2 (TOYOBO) as template of human brain hippocampus cDNA (Clontech). The PCR product was inserted into a plasmid (pcDNA3.1/V5-His-Topo (registered mark)). The PCR product-inserted plasmid was transformed in E. coli (One Shot TOP10 Chemically Competent). That E. coli was incubated in LB agar medium contained 50 μg/mL ampicillin for a day. A selected colony was incubated in LB medium contained 50 μg/mL ampicillin and PCR product-inserted plasmid was purified with QIAprep Spin Miniprep Kit (QIAGEN).
Mostly confluent HEK293 cells were washed with PBS, followed by exfoliation with 0.05% trypsin-EDTA and the cells were suspended in D-MEM liquid medium (phenol red-free, low glucose, pyruvic acid were contained) containing fetal bovine serum (final concentration: 10%) and GlutaMax (registered mark)I (final concentration: 2 mM). The suspension was scattered at 5×10^4 cells/100 L/well on poly-D-lysine-coated 96-well microplate (BD BioCoat (registered mark)). The scattered cells were cultured in 5% CO2 incubator at 37° C. Human serotonin 5-HT2B receptor expression plasmid was transfected in that cells according to the procedure seeing below.
Human serotonin 5-HT2B receptor expression plasmid and Lipofectamine (registered mark) 2000 (Invitrogen) were diluted to 0.008 g/L and 0.016 g/L each other with OPTI-MEM (registered mark)I Reduced-Serum Medium and incubated at room temperature. After incubation, the human serotonin 5-HT2B receptor exoression plasmid-diluted liquid and Lipofectamine (registered mark) 2000-diluted liquid were mixed at an equal volume and incubated at room temperature to form a complex. The complex was dispensed at 50 μL/well on the cells prepared above. The cells were incubated in 5% CO2 incubator at 37° C. for 2 days. After incubation, the cells were used as human serotonin 5-HT2B receptor forced expression cells for measurement of intracellular calcium concentration.
3) Determination of Stimulating Activities of Human Serotonin 5-HT2B Receptor
The stimulating activities of human serotonin 5-HT2B receptor was determined by measuring of intracellular calcium concentration. The 30 mM dimethyl sulfoxide (DMSO) solution contained test compounds or serotonin hydrochloride (Sigma) as positive control, was diluted with assay buffer ((HBSS), 20 mM HEPES, 1.3 mM calcium chloride, 0.5 mM magnesium chloride and 0.4 mM magnesium sulfate were contained, pH7.4) to appropriate concentration.
The forced expression cells were washed with assay buffer, and 100 μL/well of fluorescent calcium indicator (Fluo-4 NW Calcium Assay Kit) was added and incubated in 5% CO2 incubator at 37° C. After incubation, 50 μL/well of each test compound was added, and the concentration of intracellular calcium was measured as fluorescent signal with FlexStation (registered mark) II (Molecular Devices). The data was analyzed by nonlinear regression and sigmoidal dose-response curve fitting using GraphPad PRISM 4.0, and values of EC50 (concentration of the compound producing half the maximal effect of the compound) were calculated. The data was presented as mean value (n=2).

[2] = target: T2, human dopamine D2 receptor (Homo sapiens, UniProt P14416); assay: Stimulating activities on human dopamine D2 receptor, [35S]GTPγS binding to hD2R#7 cell membrane homogenates; type: biochemical
T2 construct: accorded to it of human dopamine D2 receptor (NM1-000795) registered on NCBI completely; expressed in transfected cells; membrane homogenates
Method: Identification Test of Stimulating Activities on Human Dopamine D2 Receptor
4) Preparation of Membrane Homogenates from hD2R#7 Cells
(2) Preparation of Membrane Homogenates from hD2R#7 Cells
The cells, which were grown to confluence in 150 mm dishes (IWAKI), were harvested with isotonic buffer (50 mM Tris (Sigma), 2 mM ethylenediamine-tetraacetic acid (Invitrogen), and 125 mM sodium chloride (Wako Pure Chemicals), pH 7.4) and centrifuged at 1880×g and 4° C. for 10 minutes, and the cell pellets were then suspended in isotonic buffer. After being subjected to one cycle of freezing and thawing, the cells were centrifuged at 1880×g and 4° C. for 10 minutes, and the cell pellets were suspended in isotonic buffer. The cells were centrifuged at 1880×g and 4° C. for 10 minutes, and the cell pellets were suspended in isotonic buffer and homogenate buffer (10 mM sodium bicarbonate (Nacalai) and 5 mM ethylenediamine-tetraacetic acid, pH 7.5). The volume ratio of isotonic-to-homogenate buffer was 2. The cells were sonicated and centrifuged at 1880×g and 4° C. for 10 minutes, and the supernatants were ultracentrifuged at 80000×g and 4° C. for 30 minutes. The final cell pellets were suspended in homogenate buffer containing protease inhibitor cocktail (Nacalai) and stored at −80° C. until use. The protein concentration was determined using BCA Protein Assay Kit (Pierce) in accordance with the manufacturer's instructions.
5) Determination of Stimulating Activities of Human Dopamine D2 Receptor
The stimulating activities of human dopamine D2 receptor was determined by measuring the binding potential of [^35S]-guanosine 5′-[gamma-thio]triphosphate ([^35S]GTPγS, PerkinElmer) according to the method described by Newman-Tancredi A. et al. (Naunyn-Schmiedeberg's Arch Pharmacol, 1999, vol. 359, pp. 447-453) with a minor modification. Test compounds and dopamine hydrochloride (Fluka) as positive control were dissolved in dimethyl sulfoxide (CARLBIOCHEM), resulting in 30 mM. The both compounds were diluted with assay buffer (50 mM Tris, 100 mM sodium chloride, 5 mM magnesium chloride (Nacalai), 1 mM ethylenediamine-tetraacetic acid, 1 mM dithiothreitol (Wako Pure Chemicals), 10 μM guanosine diphosphate (Wako Pure Chemicals) and 0.5% bovine serum albumin (Sigma), pH 7.4) to a final concentration of 100 pM (only test compounds), 1 nM, 10 nM, 100 nM, 1 μM, 10 μM and 100 μM (only dopamine hydrochloride). The above membrane homogenates and [^35S]GTPγS were diluted with assay buffer to a final concentration of 0.06 mg/mL and 0.6 nM, respectively. The serial diluted compounds (50 μL), the diluted membrane homogenates (50 μL) and the diluted [^35S]GTPγS (50 μL) were mixed on multi-screen 96-well plate (Millipore) and shaken lightly at room temperature for 60 minutes. The reaction was terminated by vacuum filtration with three times washes of ice-cold wash buffer (50 mM Tris, 100 mM sodium chloride, 5 mM magnesium chloride, and 1 mM ethylenediamine-tetraacetic acid, pH 7.4). After drying the bottoms of the plate at 60° C., MicroScinti-40 (PerkinElmer) (30 μL) was added in the plate. The tops of the plate were sealed by TopSeal-A (PerkinElmer), and the radioactivity was determined in a TopCount NXT (registered mark) (PerkinElmer) after shaking lightly for 5-10 minutes. The data was analyzed by nonlinear regression and sigmoidal dose-response curve fitting using GraphPad PRISM 4.0 (GraphPad Software), and values of EC50 (concentration of the compound producing half the maximal effect of the compound) were calculated. The data was presented as mean value (n=2).

[3] = intracellular calcium (Fluo-4), HEK293 cells transiently expressing human 5-HT2B receptor, mean, n=2, read-out: EC50
[4] = [35S]GTPγS binding, membrane homogenates of HEK293 cells stably expressing human D2 receptor, mean, n=2, read-out: EC50

T1 sequence (P41595 whole entry): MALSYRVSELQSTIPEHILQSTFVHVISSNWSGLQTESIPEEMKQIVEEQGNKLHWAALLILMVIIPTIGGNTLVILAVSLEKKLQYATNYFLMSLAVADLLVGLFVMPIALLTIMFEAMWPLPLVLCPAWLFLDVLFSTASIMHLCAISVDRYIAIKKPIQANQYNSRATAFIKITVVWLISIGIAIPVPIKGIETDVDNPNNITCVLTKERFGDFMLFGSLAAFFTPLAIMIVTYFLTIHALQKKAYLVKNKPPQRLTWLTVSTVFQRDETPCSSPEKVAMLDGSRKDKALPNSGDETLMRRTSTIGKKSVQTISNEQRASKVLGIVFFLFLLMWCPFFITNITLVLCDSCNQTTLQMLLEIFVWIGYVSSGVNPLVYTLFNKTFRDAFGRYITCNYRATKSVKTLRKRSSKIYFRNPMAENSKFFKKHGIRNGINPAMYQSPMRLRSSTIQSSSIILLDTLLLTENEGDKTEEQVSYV
T2 sequence (P14416 whole entry): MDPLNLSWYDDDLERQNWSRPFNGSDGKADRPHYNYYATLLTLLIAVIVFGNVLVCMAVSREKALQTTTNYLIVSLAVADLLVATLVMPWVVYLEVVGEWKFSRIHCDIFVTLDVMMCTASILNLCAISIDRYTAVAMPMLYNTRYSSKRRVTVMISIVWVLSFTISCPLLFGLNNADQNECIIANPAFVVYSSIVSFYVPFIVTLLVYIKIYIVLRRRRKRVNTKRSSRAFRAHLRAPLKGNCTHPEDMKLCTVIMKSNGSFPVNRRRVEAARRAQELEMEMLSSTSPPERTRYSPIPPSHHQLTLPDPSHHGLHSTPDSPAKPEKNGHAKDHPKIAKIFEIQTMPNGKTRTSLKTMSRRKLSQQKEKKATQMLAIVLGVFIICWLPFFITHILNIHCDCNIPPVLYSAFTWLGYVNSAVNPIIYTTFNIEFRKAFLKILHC

| Structure (SMILES) | EC50 [1, 3] | EC50 [2, 4] | other results |
| --- | --- | --- | --- |
| CCN(C(=O)NCc1ccccn1)C(=O)[C@@H]1C[C@@H]2Cc3c(sc(N)c3C#N)C[C@H]2N(C)C1 [1-25] | – | – | EC50 [2]: 15 nM |
| CCCN1C[C@H](C(=O)N(CCCN(C)C)C(=O)NCC)C[C@@H]2Cc3c(sc(N)c3C#N)C[C@H]21 [1-13] | – | 7 nM | – |
| CCN(CC)CCNC(=O)N(CC)C(=O)[C@@H]1C[C@@H]2Cc3c(sc(N)c3C#N)C[C@H]2N(C)C1 [1-105, 1-{[(4aR,6R,8aR)-2-amino-3-cyano-8-methyl-4H,4aH,5H,6H,7H,8H,8aH,9H-thieno[3,2-g]quinolin-6-yl]carbonyl}-3-[2-(diethylamino)ethyl]-1-ethylurea] | – | – | EC50 [2]: 5 nM; EC50 [1]: > 10000 nM |
| CCCCN(C(=O)NCCN1CCN(C)CC1)C(=O)[C@@H]1C[C@@H]2Cc3c(sc(N)c3C#N)C[C@H]2N(C)C1 [1-66] | – | 14 nM | – |
| CCCN(C(=O)NCC(C)(C)N(C)C)C(=O)[C@@H]1C[C@@H]2Cc3c(sc(N)c3C#N)C[C@H]2N(C)C1 (relative stereo) [1-82, 1-{[(4aR*,6R*,8aR*)-2-amino-3-cyano-8-methyl-4H,4aH,5H,6H,7H,8H,8aH,9H-thieno[3,2-g]quinolin-6-yl]carbonyl}-3-[2-(dimethylamino)-2-methylpropyl]-1-propylurea] | > 10000 nM | 13 nM | – |
| CCN(C(=O)NC(C)(C)CN(C)C)C(=O)[C@@H]1C[C@@H]2Cc3c(sc(N)c3C#N)C[C@H]2N(C)C1 [1-106, 1-{[(4aR,6R,8aR)-2-amino-3-cyano-8-methyl-4H,4aH,5H,6H,7H,8H,8aH,9H-thieno[3,2-g]quinolin-6-yl]carbonyl}-3-[1-(dimethylamino)-2-methylpropan-2-yl]-1-ethylurea] | > 10000 nM | 4 nM | – |
| CCCN(C(=O)NCC(C)(C)CN(C)C)C(=O)[C@@H]1C[C@@H]2Cc3c(sc(N)c3C#N)C[C@H]2N(C)C1 [1-83] | > 10000 nM | 6 nM | – |
| CN(C)CC(C)(C)CNC(=O)N(CC1CC1)C(=O)[C@@H]1C[C@@H]2Cc3c(sc(N)c3C#N)C[C@H]2N(C)C1 [1-104, 1-{[(4aR,6R,8aR)-2-amino-3-cyano-8-methyl-4H,4aH,5H,6H,7H,8H,8aH,9H-thieno[3,2-g]quinolin-6-yl]carbonyl}-1-(cyclopropylmethyl)-3-[3-(dimethylamino)-2,2-dimethyl-propyl]urea] | > 10000 nM | 4 nM | – |
| CN(C)CCNC(=O)N(CCCC(F)(F)F)C(=O)[C@@H]1C[C@@H]2Cc3c(sc(N)c3C#N)C[C@H]2N(C)C1 [1-61] | – | 11 nM | – |
| CCCN1C[C@H](CSC)C[C@@H]2c3cccc4[nH]cc(c34)C[C@H]21 [Pergolide, pergolide, reference compound] | 287 nM | – | – |
| CCCCN(C(=O)NCCN(CC)CC)C(=O)[C@H]1CN[C@@H]2Cc3sc(N)c(C#N)c3C[C@H]2C1 [1-88] | – | 24 nM | – |
| CCCCN(C(=O)NCCN(C)CCO)C(=O)[C@@H]1C[C@@H]2Cc3c(sc(N)c3C#N)C[C@H]2N(C)C1 [1-87] | – | 22 nM | – |
| COCCN(C(=O)NCCN1CCCCC1)C(=O)[C@@H]1C[C@@H]2Cc3c(sc(N)c3C#N)C[C@H]2N(C)C1 [1-68] | – | 12 nM | – |

The next lines start with results.

| EC50 [1, 3] | EC50 [2, 4] | Structure (SMILES) | other results |
| --- | --- | --- | --- |
| > 10000 nM | – | CCN(C(=O)NCC(CC)(CC)N(C)C)C(=O)[C@@H]1C[C@@H]2Cc3c(sc(N)c3C#N)C[C@H]2N(C)C1 (relative stereo) [1-84, 1-{[(4aR*,6R*,8aR*)-2-amino-3-cyano-8-methyl-4H,4aH,5H,6H,7H,8H,8aH,9H-thieno[3,2-g]quinolin-6-yl]carbonyl}-3-[2-(dimethylamino)-2-ethylbutyl]-1-ethylurea] | – |
| – | 6 nM | CN(C)CCNC(=O)N(Cc1cccs1)C(=O)[C@@H]1C[C@@H]2Cc3c(sc(N)c3C#N)C[C@H]2N(C)C1 [1-37] | – |
| – | 13 nM | CCN(C(=O)NCCc1ccccc1CCN(C)C)C(=O)[C@@H]1C[C@@H]2Cc3c(sc(N)c3C#N)C[C@H]2N(C)C1 [1-44] | – |
| – | 10 nM | CN(C)CCNC(=O)N(CC1CC1)C(=O)[C@@H]1C[C@@H]2Cc3c(sc(N)c3C#N)C[C@H]2N(C)C1 (single isomer, unassigned) [1-36] | – |
| – | 21 nM | CCN(C(=O)NCCCOC)C(=O)[C@@H]1C[C@@H]2Cc3c(sc(N)c3C#N)C[C@H]2N(C)C1 [1-21] | – |
| – | 9 nM | CN(C)CCNC(=O)N(CC(C)(C)C)C(=O)[C@@H]1C[C@@H]2Cc3c(sc(N)c3C#N)C[C@H]2N(C)C1 (relative stereo) [1-56, 1-{[(4aR*,6R*,8aR*)-2-amino-3-cyano-8-methyl-4H,4aH,5H,6H,7H,8H,8aH,9H-thieno[3,2-g]quinolin-6-yl]carbonyl}-3-[2-(dimethylamino)ethyl]-1-(2,2-di-methylpropyl)urea] | – |
| > 10000 nM | 4 nM | CN(C)CCNC(=O)N(CCc1ccccc1)C(=O)[C@@H]1C[C@@H]2Cc3c(sc(N)c3C#N)C[C@H]2N(C)C1 (relative stereo) [1-30, 1-{[(4aR*,6R*,8aR*)-2-amino-3-cyano-8-methyl-4H,4aH,5H,6H,7H,8H,8aH,9H-thieno[3,2-g]quinolin-6-yl]carbonyl}-3-[2-(dimethylamino)ethyl]-1-(2-phenylethyl)urea] | – |
| – | 17 nM | C=CCN(C(=O)NCCN(C)C)C(=O)[C@@H]1C[C@@H]2Cc3c(sc(N)c3C#N)C[C@H]2N(C)C1 [1-39] | – |
| – | 13 nM | CCN(C(=O)NCCN(C)c1ccccc1)C(=O)[C@@H]1C[C@@H]2Cc3c(sc(N)c3C#N)C[C@H]2N(C)C1 [1-86] | – |
